Experimental data published in patent US20240247318A1, “METHODS FOR DETECTING INACTIVATION OF THE HOMOLOGOUS REC[…] (BRCA1/2) IN HUMAN TUMORS” (Institute Curie, priority 2012, published 2024).

Tested on: triple-negative breast tumors
Experiment: clinical trial of Cisplatin treatment of patients with triple-negative breast tumors (GSE28330)
Assay type: in vivo, human
Details: number of patients
Method: Two publically available data sets from clinical trial of Cisplatin treatment of patients with triple-negative breast tumors [GSE28330 GEO database][59] were processed and the number of LST_10 Mb was calculated for each tumor with good quality of measured profile. Genomic profiles were measured by two types of chip: Affymetrix Oncoscan 70K (Dataset 2) and Oncoscan 300K (Dataset 1). Information about mutational status of BRCA1/2 was available for some tumors. Response to treatment was measured by Miller-Payne score, where 4 and 5 were considered as “positive response”, while scores<4 were considered as “no response” Case by case and summary results are presented in Table 2 and Tables 3-5 (statistical comparisons were performed by the Fisher exact test).

SMILES: N.N.[Cl][Pt][Cl] [Cisplatin, cisplatin]
- Non Responders (BRCA1/2 inactivated tumors): 8
- Responders (BRCA1/2 inactivated tumors): 9
- Non Responders (LST_high tumors (LST_10 Mb)): 15
- Responders (LST_high tumors (LST_10 Mb)): 18
- Non Responders (LST_low tumors (LST_10 Mb)): 20
- Responders (LST_low tumors (LST_10 Mb)): 1
- Non Responders (NON BRCA1/2 or NA tumors): 27
- Responders (NON BRCA1/2 or NA tumors): 10
